Assay results taken from ChEMBL document CHEMBL1201862, “PubChem BioAssay data set” (2004).
The source made the active and inactive calls.

What was measured:
[1] = target: 5-hydroxytryptamine receptor 2A (Mus musculus, UniProt P35363); format: functional, cell-based;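 note: CHO-K1 cells with tagged receptor and beta-arrestin; agonist potency measured as compound-induced activation of the receptor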
Mu-type opioid receptor = Mu-type opioid receptor (Homo sapiens, UniProt P35372); format: functional, cell-based;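 note: U2OS cells with beta-arrestin recruitment to OPRM1 by beta-gal complementation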
[2] = target: Voltage-gated inwardly rectifying potassium channel KCNH2 (Homo sapiens, UniProt Q12809); details: Potency;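 note: confirmatory quantitative high-throughput screen measuring inhibition of hERG channel activity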
[3] = target: T1, Ubiquitin-conjugating enzyme E2 N (Homo sapiens, UniProt P61088); format: functional
T1 sequence (P61088 whole entry): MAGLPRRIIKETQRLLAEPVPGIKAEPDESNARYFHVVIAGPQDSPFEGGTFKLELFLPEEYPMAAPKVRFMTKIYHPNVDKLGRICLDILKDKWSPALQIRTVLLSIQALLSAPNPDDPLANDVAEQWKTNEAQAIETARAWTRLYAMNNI

[4] = NIH3T3 cell viability loss – ATP luminescence, mouse fibroblasts, counter-screen, dose response (AID 2010); format: functional, cell-based;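 note: cells exposed to compound for about 90 hours before reading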
Bcl-2-related protein A1 = target: T2, Bcl-2-related protein A1 (Mus musculus, UniProt Q07440); format: functional;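 note: confirmatory dose–response counterscreen on Bfl-1, used to check hits from a UBC13 polyubiquitin inhibitor campaign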
T2 sequence (Q07440 whole entry): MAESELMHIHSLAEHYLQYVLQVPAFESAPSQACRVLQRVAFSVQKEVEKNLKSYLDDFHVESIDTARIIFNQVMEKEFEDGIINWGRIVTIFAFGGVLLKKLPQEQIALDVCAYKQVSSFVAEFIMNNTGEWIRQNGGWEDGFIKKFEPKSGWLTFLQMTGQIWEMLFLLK

[5] = microbe, parasite or virus in culture; format: functional; details: Mycobacterium tuberculosis
[6] = target: T1, Ubiquitin-conjugating enzyme E2 N; format: functional; remark: listed apart in the source
[7] = Trypanosoma cruzi growth suppression in host cells – NIH3T3 host cells, beta-gal luminescence, confirmation (AID 2044); format: functional, cell-based;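 note: intracellular parasites grown in NIH/3T3 mouse fibroblasts as host cells; luminescent beta-galactosidase reporter signal from transgenic T. cruzi replicating inside host cells; inhibitors lower the luminescence signal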
Coagulation factor XII = target: T3, Coagulation factor XII (Homo sapiens, UniProt P00748); format: functional;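 note: activated factor XIIa alpha cleaving a fluorogenic AMC peptide substrate; inhibitor potency from loss of enzyme activity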
T3 sequence (P00748 whole entry): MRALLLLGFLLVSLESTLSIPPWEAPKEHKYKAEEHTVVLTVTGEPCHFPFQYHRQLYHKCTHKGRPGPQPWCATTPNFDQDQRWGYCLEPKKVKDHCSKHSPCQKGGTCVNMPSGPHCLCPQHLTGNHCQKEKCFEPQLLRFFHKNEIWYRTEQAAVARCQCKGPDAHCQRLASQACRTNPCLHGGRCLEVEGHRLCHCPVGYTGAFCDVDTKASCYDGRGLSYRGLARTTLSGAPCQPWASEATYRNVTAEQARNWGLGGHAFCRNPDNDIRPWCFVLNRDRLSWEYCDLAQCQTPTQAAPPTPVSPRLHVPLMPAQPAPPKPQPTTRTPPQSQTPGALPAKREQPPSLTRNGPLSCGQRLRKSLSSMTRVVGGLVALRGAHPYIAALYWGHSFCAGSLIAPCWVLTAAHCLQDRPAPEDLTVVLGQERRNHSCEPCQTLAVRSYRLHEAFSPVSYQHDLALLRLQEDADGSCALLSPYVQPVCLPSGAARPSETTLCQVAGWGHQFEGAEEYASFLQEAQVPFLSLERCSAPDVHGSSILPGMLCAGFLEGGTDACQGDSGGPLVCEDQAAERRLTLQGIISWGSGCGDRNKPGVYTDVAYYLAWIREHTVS

[8] = target: T4, Mannose-6-phosphate isomerase (Homo sapiens, UniProt P34949); test: phosphomannose isomerase inhibition – biochemical, fluorescence intensity, confirmation (AID 1535)
T4 sequence (P34949 whole entry): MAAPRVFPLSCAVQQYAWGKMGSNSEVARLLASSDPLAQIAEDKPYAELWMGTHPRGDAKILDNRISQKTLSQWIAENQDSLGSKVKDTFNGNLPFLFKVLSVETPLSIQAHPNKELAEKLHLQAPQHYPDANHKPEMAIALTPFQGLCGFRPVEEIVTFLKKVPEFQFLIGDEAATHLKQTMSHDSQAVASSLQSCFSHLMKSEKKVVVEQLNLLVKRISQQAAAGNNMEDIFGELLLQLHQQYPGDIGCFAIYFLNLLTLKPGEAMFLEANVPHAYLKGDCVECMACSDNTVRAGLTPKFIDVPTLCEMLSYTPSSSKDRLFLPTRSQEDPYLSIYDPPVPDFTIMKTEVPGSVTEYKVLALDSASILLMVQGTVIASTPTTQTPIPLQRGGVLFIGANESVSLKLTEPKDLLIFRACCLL

Phosphomannomutase 2 = target: T5, Phosphomannomutase 2 (Homo sapiens, UniProt O15305); test: Counter screen SAR assay for PMM2 inhibitors via a fluorescence intensity assay. [Related pubchem assays (depositor defined):AID1545, AID1574]
T5 sequence (O15305 whole entry): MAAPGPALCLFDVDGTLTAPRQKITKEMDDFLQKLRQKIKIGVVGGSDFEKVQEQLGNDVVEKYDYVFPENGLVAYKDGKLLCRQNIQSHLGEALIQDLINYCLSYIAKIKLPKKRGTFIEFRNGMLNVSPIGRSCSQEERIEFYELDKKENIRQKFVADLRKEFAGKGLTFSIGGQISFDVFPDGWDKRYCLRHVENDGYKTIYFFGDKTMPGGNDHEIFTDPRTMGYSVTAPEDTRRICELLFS

Cytochrome P450 2C9 = Cytochrome P450 2C9 (Homo sapiens, UniProt P11712)
Sequence of Cytochrome P450 2C9 (P11712 whole entry): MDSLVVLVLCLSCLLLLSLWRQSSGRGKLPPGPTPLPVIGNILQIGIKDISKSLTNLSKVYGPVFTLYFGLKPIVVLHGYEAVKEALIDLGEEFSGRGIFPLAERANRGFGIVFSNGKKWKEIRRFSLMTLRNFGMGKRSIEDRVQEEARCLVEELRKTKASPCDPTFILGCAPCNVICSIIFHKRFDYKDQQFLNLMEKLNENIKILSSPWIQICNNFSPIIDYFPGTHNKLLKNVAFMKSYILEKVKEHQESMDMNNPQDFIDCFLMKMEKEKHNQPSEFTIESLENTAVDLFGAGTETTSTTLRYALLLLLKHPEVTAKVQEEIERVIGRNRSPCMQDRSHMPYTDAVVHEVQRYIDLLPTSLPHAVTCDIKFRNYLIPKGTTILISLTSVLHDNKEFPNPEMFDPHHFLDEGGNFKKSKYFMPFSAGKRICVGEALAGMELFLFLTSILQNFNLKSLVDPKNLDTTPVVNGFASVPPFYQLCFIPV

[9] = luciferase reporter signal suppression in cells – H4 neuroglioma cells, luminescence, dose response (AID 1990); format: functional, cell-based
[10] = alpha-synuclein stem-loop luciferase translation blockers – H4 neuroglioma cells, luminescence, confirmation (AID 1988); format: functional, cell-based
HEK293 = test: HEK293T cell viability loss, resazurin readout – resazurin fluorescence, cytotoxicity control for NF-kB activator project, SAR follow-up (AID 493251); format: functional, cell-based; details: Homo sapiens
[11] = target: T6, Heat shock factor protein 1 (Mus musculus, UniProt P38532); test: decrease of HSF1-responsive luciferase luminescence – cell-based, NIH3T3, dose retest, confirmation (AID 2382); format: functional;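 note: NIH3T3 fibroblasts with HSF1-driven luciferase reporter stressed by proteasome inhibitor MG132; luminescence from HSF1-driven luciferase expression after 8 hours of MG132 stress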
T6 sequence (P38532 whole entry): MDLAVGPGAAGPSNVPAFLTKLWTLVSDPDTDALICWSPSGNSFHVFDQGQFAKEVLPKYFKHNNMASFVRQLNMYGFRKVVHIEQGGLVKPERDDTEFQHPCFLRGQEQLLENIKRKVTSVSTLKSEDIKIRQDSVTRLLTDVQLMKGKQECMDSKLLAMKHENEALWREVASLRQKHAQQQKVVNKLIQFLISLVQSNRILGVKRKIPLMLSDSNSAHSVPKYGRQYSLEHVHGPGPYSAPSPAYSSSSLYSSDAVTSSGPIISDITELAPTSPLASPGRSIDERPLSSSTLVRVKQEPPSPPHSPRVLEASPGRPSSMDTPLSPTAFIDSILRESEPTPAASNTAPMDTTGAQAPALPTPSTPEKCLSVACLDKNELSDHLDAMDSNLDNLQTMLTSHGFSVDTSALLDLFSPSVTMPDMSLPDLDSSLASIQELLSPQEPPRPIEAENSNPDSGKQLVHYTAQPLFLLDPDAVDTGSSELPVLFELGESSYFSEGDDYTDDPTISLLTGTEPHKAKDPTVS

[12] = target: Dual specificity tyrosine-phosphorylation-regulated kinase 1A (Rattus norvegicus, UniProt Q63470); format: biochemical, Homo sapiens
[13] = target: Peroxisome proliferator-activated receptor gamma/Nuclear receptor coactivator 1 (Homo sapiens, UniProt P37231); test: TR-FRET dose response biochemical High Throughput Screening assay for agonists of the steroid receptor coactivator 1 (SRC-1) recruitment by the peroxisome proliferator-activated receptor gamma (PPAR gamma): non-selective agonists. [Related pubchem assays (depositor defined):AID1300, AID1808, AID504735, AID631]; format: protein assay
Sequence of Peroxisome proliferator-activated receptor gamma/Nuclear receptor coactivator 1 (P37231 whole entry): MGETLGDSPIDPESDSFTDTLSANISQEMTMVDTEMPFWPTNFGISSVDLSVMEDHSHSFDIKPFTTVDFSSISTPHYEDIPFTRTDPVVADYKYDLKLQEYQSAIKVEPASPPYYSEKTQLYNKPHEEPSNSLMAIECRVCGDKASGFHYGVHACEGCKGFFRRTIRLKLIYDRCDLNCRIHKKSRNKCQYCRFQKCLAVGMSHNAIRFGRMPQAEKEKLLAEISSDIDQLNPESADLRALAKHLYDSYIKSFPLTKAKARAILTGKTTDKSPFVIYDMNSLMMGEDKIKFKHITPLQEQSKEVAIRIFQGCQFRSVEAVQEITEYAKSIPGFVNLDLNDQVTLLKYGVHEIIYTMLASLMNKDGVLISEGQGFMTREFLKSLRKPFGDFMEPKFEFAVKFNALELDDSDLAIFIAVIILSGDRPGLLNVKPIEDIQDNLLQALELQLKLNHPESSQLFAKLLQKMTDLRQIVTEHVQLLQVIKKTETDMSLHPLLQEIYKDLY
Sequence of Peroxisome proliferator-activated receptor gamma/Nuclear receptor coactivator 1 (Q15788 whole entry, further chain): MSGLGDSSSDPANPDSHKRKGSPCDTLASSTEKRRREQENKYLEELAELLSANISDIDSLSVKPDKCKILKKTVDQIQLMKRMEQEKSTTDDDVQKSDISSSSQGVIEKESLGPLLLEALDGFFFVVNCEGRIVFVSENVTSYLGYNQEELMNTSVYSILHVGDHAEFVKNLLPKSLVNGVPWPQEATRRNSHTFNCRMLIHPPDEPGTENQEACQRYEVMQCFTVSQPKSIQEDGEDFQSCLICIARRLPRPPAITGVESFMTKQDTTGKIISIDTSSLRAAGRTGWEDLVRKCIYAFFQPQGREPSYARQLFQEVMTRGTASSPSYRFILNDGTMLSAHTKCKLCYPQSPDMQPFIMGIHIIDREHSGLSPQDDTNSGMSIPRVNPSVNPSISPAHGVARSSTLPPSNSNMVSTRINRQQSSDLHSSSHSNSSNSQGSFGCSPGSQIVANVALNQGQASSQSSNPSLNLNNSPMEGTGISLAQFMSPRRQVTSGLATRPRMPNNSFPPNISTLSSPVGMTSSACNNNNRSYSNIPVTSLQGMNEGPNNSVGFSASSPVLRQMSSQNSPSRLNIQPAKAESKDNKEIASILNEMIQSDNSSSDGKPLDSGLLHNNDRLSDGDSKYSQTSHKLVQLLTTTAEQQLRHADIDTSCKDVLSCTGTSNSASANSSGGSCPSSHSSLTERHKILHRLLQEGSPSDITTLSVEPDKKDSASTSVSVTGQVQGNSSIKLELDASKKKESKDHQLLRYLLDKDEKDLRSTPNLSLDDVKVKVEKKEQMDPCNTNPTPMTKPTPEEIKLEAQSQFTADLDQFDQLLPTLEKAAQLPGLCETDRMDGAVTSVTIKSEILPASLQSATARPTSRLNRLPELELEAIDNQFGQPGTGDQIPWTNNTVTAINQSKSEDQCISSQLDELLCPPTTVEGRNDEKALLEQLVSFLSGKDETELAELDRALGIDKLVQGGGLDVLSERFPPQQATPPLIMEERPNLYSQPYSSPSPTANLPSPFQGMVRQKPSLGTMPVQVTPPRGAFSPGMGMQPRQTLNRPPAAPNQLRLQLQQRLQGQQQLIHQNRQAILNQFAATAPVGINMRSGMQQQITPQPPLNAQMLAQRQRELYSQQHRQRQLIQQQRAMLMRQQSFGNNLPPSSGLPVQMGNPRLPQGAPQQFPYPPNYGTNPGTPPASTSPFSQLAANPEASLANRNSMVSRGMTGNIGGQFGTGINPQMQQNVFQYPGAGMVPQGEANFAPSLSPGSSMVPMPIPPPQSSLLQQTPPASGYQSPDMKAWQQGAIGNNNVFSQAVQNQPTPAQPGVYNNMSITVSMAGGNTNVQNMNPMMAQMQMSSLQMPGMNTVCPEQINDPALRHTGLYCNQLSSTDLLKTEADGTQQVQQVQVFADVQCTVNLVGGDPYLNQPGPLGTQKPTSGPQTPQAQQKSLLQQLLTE

[14] = target: Peroxisome proliferator-activated receptor gamma/Nuclear receptor coactivator 2 (Homo sapiens, UniProt P37231); test: (§1) TR-FRET dose response biochemical High Throughput Screening assay for agonists of the steroid receptor coactivator 2 (SRC-2) recruitment by the peroxisome proliferator-activated receptor gamma (PPAR gamma): non-selective agonists. [Related pubchem assays: 1297, 1032 ]; format: functional
Sequence of Peroxisome proliferator-activated receptor gamma/Nuclear receptor coactivator 2 (P37231 whole entry): as the sequence (P37231 whole entry) above
Sequence of Peroxisome proliferator-activated receptor gamma/Nuclear receptor coactivator 2 (Q15596 whole entry, further chain): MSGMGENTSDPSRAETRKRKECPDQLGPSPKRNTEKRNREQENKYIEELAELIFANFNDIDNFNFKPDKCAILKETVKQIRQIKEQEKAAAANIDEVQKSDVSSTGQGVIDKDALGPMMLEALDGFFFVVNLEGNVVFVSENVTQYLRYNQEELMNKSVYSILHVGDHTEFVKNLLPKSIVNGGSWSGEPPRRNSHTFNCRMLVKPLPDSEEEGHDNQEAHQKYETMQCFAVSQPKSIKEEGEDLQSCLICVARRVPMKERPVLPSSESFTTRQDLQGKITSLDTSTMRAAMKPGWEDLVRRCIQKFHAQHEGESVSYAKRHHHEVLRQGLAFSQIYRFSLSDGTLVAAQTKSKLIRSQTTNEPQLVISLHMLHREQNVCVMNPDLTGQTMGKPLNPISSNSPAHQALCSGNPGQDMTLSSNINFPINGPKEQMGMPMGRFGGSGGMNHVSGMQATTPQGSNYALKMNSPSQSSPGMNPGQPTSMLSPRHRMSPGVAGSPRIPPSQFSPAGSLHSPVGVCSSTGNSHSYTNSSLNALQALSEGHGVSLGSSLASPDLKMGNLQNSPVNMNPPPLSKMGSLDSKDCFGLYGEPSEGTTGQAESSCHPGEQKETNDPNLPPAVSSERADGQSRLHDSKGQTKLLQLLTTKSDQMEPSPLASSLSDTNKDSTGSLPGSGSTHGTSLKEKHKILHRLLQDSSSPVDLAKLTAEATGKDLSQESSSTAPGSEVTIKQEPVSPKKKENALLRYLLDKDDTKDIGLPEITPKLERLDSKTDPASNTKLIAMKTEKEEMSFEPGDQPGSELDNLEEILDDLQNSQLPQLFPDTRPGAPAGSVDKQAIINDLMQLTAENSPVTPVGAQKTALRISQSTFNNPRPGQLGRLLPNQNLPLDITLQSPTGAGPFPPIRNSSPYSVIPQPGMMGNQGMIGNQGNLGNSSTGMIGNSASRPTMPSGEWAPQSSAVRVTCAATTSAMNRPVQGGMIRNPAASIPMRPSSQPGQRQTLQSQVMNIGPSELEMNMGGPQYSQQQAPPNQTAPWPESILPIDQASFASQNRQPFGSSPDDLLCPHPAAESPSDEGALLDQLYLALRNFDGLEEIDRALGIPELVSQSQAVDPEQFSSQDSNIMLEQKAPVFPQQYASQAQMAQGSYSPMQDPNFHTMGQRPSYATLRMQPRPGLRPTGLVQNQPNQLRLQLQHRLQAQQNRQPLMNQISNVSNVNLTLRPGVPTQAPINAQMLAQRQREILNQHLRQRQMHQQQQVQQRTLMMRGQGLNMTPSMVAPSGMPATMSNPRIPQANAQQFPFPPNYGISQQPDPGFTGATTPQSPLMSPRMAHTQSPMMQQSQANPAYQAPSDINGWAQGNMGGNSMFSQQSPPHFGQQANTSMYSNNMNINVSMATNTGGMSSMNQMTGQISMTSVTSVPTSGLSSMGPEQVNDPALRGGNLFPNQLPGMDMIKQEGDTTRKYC

[15] = target: Peroxisome proliferator-activated receptor gamma/Nuclear receptor coactivator 3 (Homo sapiens, UniProt P37231); test: as §1, with “3 (SRC-3)” for “2 (SRC-2)”, “1301 (Confirmation screen.), 1048 (Primary screen.)]” for “1297, 1032 ]”; format: functional
CAAX prenyl protease 2 = target: T7, CAAX prenyl protease 2 (Saccharomyces cerevisiae S288c, UniProt Q03530); format: biochemical
T7 sequence (Q03530 whole entry): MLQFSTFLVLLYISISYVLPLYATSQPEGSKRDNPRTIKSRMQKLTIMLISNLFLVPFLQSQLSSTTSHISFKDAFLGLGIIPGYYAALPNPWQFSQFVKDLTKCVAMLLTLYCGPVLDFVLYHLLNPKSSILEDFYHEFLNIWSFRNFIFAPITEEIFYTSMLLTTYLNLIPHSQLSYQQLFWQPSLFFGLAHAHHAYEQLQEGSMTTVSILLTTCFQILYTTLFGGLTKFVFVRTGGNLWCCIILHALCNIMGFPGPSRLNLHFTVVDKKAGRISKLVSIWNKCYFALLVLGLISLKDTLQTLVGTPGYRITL

Hexokinase = target: T8, Hexokinase (Trypanosoma brucei, UniProt Q38C41); test: Confirmation assay for inhibitors of Trypanosoma brucei hexokinase 1-Analogue-first series. [Related pubchem assays (depositor defined):AID1430, AID1632, AID2516, AID2560, AID2579, AID2600, AID449725, AID492951]; format: functional
T8 sequence (Q38C41 whole entry): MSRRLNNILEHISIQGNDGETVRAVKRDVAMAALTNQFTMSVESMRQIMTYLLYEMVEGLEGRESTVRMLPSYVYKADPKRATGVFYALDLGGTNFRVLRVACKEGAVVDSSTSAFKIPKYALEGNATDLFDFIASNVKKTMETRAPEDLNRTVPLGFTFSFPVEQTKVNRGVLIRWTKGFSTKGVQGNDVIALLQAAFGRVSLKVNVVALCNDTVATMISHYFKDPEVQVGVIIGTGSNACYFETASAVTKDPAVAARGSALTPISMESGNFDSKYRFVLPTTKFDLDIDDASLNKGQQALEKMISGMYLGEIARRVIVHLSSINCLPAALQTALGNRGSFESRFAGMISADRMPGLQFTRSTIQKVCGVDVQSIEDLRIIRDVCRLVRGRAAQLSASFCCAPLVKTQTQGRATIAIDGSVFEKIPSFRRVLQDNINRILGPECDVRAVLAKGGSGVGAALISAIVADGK

Sequence of 5-hydroxytryptamine receptor 2A (P35363 whole entry): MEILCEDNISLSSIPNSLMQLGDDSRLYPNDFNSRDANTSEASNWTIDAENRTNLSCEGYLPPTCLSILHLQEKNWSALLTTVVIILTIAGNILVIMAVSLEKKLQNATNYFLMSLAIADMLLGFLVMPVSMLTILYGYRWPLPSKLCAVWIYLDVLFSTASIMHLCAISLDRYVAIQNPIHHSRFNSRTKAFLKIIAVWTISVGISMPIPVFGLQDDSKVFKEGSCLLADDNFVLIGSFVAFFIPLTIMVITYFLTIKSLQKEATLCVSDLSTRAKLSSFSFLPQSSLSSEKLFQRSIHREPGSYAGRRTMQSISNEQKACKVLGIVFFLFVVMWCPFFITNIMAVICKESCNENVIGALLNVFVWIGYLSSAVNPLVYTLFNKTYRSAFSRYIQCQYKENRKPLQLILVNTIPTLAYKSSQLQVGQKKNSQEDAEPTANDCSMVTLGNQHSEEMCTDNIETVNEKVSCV

## Cn1cc(C(F)(F)F)nc1-c1ccc(OCC(O)CNCCOc2ccc(O)c(C(N)=O)c2)cc1 (configuration not stated)
[1]
  EC50: 0.0952 µM (active)
Mu-type opioid receptor
  EC50: 92.4 µM (inactive)
[2]
  AC50: 25.1 µM (inconclusive)

## CC1Cc2cc3c(cc2C(c2ccc(N)cc2)=NN1)OCO3 (configuration not stated)
[2]
  AC50: 35.5 µM (inconclusive)

## CCCCN(C)CCNC(=O)c1ccc(Cn2c(=S)[nH]c3ccc(Br)cc3c2=O)cc1
[3]
  IC50: > 20 µM (inactive)
[4]
  EC50: > 60 µM (not active)
Bcl-2-related protein A1
  IC50: > 20 µM (inactive)
[5]
  CC50: 19.1 µM (active)
[6]
  IC50: 19.5 µM (active)
[7]
  EC50: 0.606 µM (active)

## CCC(C)NC(=O)CSc1nc2ccsc2c(=O)n1NC(=O)c1ccccc1 (configuration not stated)
Coagulation factor XII
  IC50: > 50 µM (inactive)

## Cc1ccc(C=Nn2c(-c3ccncc3)n[nH]c2=S)cc1
[8]
  IC50: 16.1 µM (active)
Phosphomannomutase 2
  IC50: > 100 µM (inactive)

## Cc1cccc(C(=O)NC(=S)N2CCN(C)CC2)c1
Cytochrome P450 2C9
  AC50: inconclusive

## NC(Cc1cccc(-c2ccccc2CP(=O)(O)O)c1)C(=O)O (configuration not stated)
[2]
  AC50: 35.5 µM (inconclusive)

## C[C@@H](O)C1NC(=O)[C@H](CCCCN)NC(=O)c2cc([N+](=O)[O-])cc(F)c2NCCCC[C@@H](C(N)=O)NC1=O (some centres not stated)
[3]
  IC50: > 20 µM (inactive)
Bcl-2-related protein A1
  IC50: > 20 µM (inactive)
[6]
  IC50: 14.2 µM (active)

## O=C(NCC(=O)N1CCN(S(=O)(=O)/C=C/c2ccccc2)CC1)c1ccccc1F
Coagulation factor XII
  IC50: > 50 µM (inactive)

## CCc1ccc(-c2nc(CSCC(=O)NCc3ccco3)c(C)o2)cc1
[9]
  EC50: 14.5 µM (active)
[10]
  EC50: 12.8 µM (active)
HEK293
  IC50: > 80 µM (inactive)
[11]
  EC50: 0.462 µM (active)

## O=C(O)c1cccc(CN2CCCCC2)c1
Cytochrome P450 2C9
  AC50: inconclusive

## O=C1NC(=S)S/C1=C/c1ccc(Oc2cnccn2)cc1
[12]
  AC50: 2.81 µM (active)

## CC(=O)c1sc(N2CCOCC2)nc1-c1ccccc1
[13]
  EC50: > 26.5 µM (inactive)
[14]
  EC50: > 8.82 µM (not active)
[15]
  EC50: > 79.4 µM (not active)

## CCN(CCCNC(=O)CSc1cc(=O)n(C)c2cc(Cl)ccc12)Cc1ccccc1
[13]
  EC50: > 79.4 µM (inactive)
[14]
  EC50: > 79.4 µM (not active)
[15]
  EC50: > 79.4 µM (not active)

## CN(C)S(=O)(=O)c1ccc(NC(=O)/C=C/c2ccccc2Cl)cc1
CAAX prenyl protease 2
  AC50: 4.18 µM (active)

## Cc1cc(C)c2sc(N(CCCN(C)C)C(=O)c3ccc(S(=O)(=O)N(C)Cc4ccccc4)cc3)nc2c1
[3]
  IC50: 2.65 µM (active)
Bcl-2-related protein A1
  IC50: > 20 µM (inactive)
[6]
  IC50: 4.77 µM (active)

## CCN1CCN(C(=O)CSc2cc(=O)n(C)c3ccccc23)CC1
[13]
  EC50: > 79.4 µM (inactive)
[14]
  EC50: > 79.4 µM (not active)
[15]
  EC50: > 79.4 µM (not active)

## COc1ccc(/C=C(\C#N)C(N)=O)c(OC)c1
Cytochrome P450 2C9
  AC50: inconclusive

## O=C(Cn1sc2ccccc2c1=O)NCc1ccccc1
Hexokinase
  IC50: 5.72 µM (active)

## CC(C)(C)c1ccc(C(=O)N2CCC(=O)c3ccc(Cl)cc32)cc1
Hexokinase
  IC50: > 25 µM (inactive)

## CCCCCCC(=O)Nc1cc(Cl)ccc1C(=O)O
Hexokinase
  IC50: > 25 µM (inactive)
